Where two headings read alike, the source gives them in different places.
Legend:
HEK293 cells [1] = test system: HEK293 cells
in vitro [2] = conditions: human
in vitro [3] = conditions: human; remark: listed apart in the source
in vitro [4] = conditions: human; remark: listed apart in the source
[5] = test system: primary human hepatocytes; conditions: for Metabolite Generation (marker metabolite of the probe): 10 uM
Procedure: Probe metabolism was tested as a fresh hepatocyte suspension culture, as a fresh agarose gelled BioActivator and after thawing a cryopreserved BioActivator. In all three testing conditions 50,000 viable hepatocytes were tested as following: (a) as a suspension in 500 μl of probe media, or, (b) in 50 μl of gelled agarose submerged in 450 μl of probe media. Cryopreserved BioActivators were thawed for testing after 48 hours at −80° C. Probe media was collected from the 3 test conditions at 30 minutes and 18 hours. Ice-cold acetonitrile containing 10 μM chlorzoxazone (internal extraction standard) was added at a 2:1 ratio to the collected media. The extraction mixture was analyzed by LC MS/MS.

[6] = test system: Human primary hepatocytes; type: in vitro ADME
HEK293 cells [7] = test system: HEK293 cells; remark: listed apart in the source
[8] = test system: primary human hepatocytes
[9] = HEK293 Cytotoxicity LC50, HEK293 + BioActivator
[10] = HEK293 Cytotoxicity LC50, HEK 293 + cell free agarose beads
[11] = HEK293 Cytotoxicity LC50, HEK293 + BioActivator Pre-Conditioned Media
[12] = HEK293 Cytotoxicity LC50, HEK 293 + Cell Free Agarose Bead Pre-Conditioned Media
[13] = HEK293 Cytotoxicity LC50, HEK293 + BioActivator, co-cultured 24 hours with BioActivators, Mean ± SD (N = 3), max 250 μM
[14] = HEK293 Cytotoxicity LC50, HEK 293 + cell free agarose beads, co-cultured 24 hours with cell free agarose beads, Mean ± SD (N = 3), max 250 μM
[15] = HEK293 Cytotoxicity LC50, HEK293 + BioActivator Pre-Conditioned Media, compounds pre-conditioned 24 h in BioActivator, then 24 h on HEK293, Mean ± SD (N = 3)

With `O=P1(N(CCCl)CCCl)NCCCO1` (stereo not shown) [Cyclophosphamide] the “HEK293 cytotoxicity co-cultured with BioActivator (in words)” value (HEK293 cells [1]; human) was “No HEK293 cytotoxicity”, the “HEK293 cytotoxicity co-cultured with cell free agarose bead (in words)” value (HEK293 cells [1]; human) was “No HEK293 cytotoxicity” and the CC50 (in vitro [2]; [9]) was over 250 µM. For the same molecule, the CC50 (in vitro [2]; [10]) was over 250 µM, the CC50 (in vitro [3]) was over 250 µM and the CC50 (in vitro [4]; [11]) was over 250 µM. It also gave a CC50 (in vitro [4]; [12]) of over 250 µM.

In the case of `O=C1OC(c2ccc(O)cc2)(c2ccc(O)cc2)c2ccccc21` [Phenolphthalein], the “Effect of cryopreservation on hepatocyte clearance of probe (in words)” value [5] is reported as “minimal impact”, the “Metabolite Generation (marker metabolite of the probe)” value ([5]; 30 min) is reported as 0.12 pmol/min/10^6 hepatocytes and the “Metabolite Generation (marker metabolite of the probe)” value ([5]; 18 h) is reported as 0.02 pmol/min/10^6 hepatocytes. The “Metabolite generation in slotted pipette tip compared with control hepatocyte suspension cultures (in words)” value [6] was “compare favorably”.

With `O=[N+]([O-])c1ccc(O)cc1` [4-Nitrophenol, 4-Nitrophenol] the “HEK293 cytotoxicity of compounds pre-conditioned in the BioActivator (in words)” value (HEK293 cells [7]) was “produce cytotoxicity”, the CC50 (in vitro [2]; [9]) was 101 µM and the CC50 (in vitro [2]; [10]) was over 250 µM. For the same molecule, the CC50 (in vitro [3]) was over 250 µM, the CC50 (in vitro [4]; [11]) was 199 µM and the CC50 (in vitro [4]; [12]) was over 250 µM.

With `CCOc1ccc(NC(C)=O)cc1` [Phenacetin] the “Metabolite generation in slotted pipette tip compared with control hepatocyte suspension cultures (in words)” value [6] was “compare favorably”.

Molecule `C=CC(N)=O` [Acrylamide] has a CC50 (in vitro [2]; [9]) of 167 ± 7.9 µM, a CC50 (in vitro [2]; [10]) of over 250 µM and a CC50 (in vitro [3]) of over 250 µM. It also gave a CC50 (in vitro [4]; [11]) of over 250 µM and a CC50 (in vitro [4]; [12]) of over 250 µM.

With Aflatoxin B1 the “HEK293 cytotoxicity co-cultured with BioActivator (in words)” value (HEK293 cells [1]) was “No HEK293 cytotoxicity” and the “HEK293 cytotoxicity co-cultured with cell free agarose bead (in words)” value (HEK293 cells [1]) was “No HEK293 cytotoxicity”.

For `c1ccc2c(c1)cc1ccc3cccc4ccc2c1c34` [Benzo[a]pyrene], the “HEK293 cytotoxicity co-cultured with BioActivator (in words)” value (HEK293 cells [1]; 24 h co-culture with BioActivator, up to 250 μM, compared to cell free agarose bead) was “No HEK293 cytotoxicity”, the “HEK293 cytotoxicity co-cultured with cell free agarose bead (in words)” value (HEK293 cells [1]; 24 h co-culture with cell free agarose bead, up to 250 μM) was “No HEK293 cytotoxicity” and the CC50 (in vitro [2]; [13]) was over 250 µM. It also gave a CC50 (in vitro [2]; [14]) of over 250 µM, a CC50 (in vitro [3]) of over 250 µM and a CC50 (in vitro [4]; [15]) of over 250 µM.

With `O=c1ccc2ccccc2o1` [coumarin] the “Metabolite generation in slotted pipette tip compared with control hepatocyte suspension cultures (in words)” value [6] was “compare favorably”.

In the case of `COc1cccc2c1C(=O)c1c(O)c3c(c(O)c1C2=O)C[C@@](O)(C(=O)CO)C[C@@H]3O[C@H]1C[C@H](N)[C@H](O)[C@H](C)O1` [Doxorubicin], the “HEK293 cytotoxicity co-cultured with BioActivator (in words)” value (HEK293 cells [1]; human) is reported as “measurable LC50 responses”, the “HEK293 cytotoxicity co-cultured with cell free agarose bead (in words)” value (HEK293 cells [1]; human) is reported as “measurable LC50” and the “Cytotoxicity in BioActivator hepatocytes at end of co-culture (in words)” value [8] is reported as “cytotoxicity was evident”. The “Cytotoxicity in BioActivator hepatocytes at end of co-culture (in words)” value ([8]; human) was “LC50 responses”, the “HEK293 cytotoxicity of compounds pre-conditioned in the BioActivator (in words)” value (HEK293 cells [7]) was “produce cytotoxicity” and the CC50 (in vitro [2]; [13]) was 59 ± 5.1 µM. For the same molecule, the CC50 (in vitro [2]; [14]) was 108 ± 9.3 µM, the CC50 (in vitro [3]) was 104 ± 4.6 µM and the CC50 (in vitro [4]; [15]) was 71 ± 2.7 µM.

In the case of `Nc1cc2c3ccccc3ccc2c2ccccc12` [6-Aminochrysene], the “HEK293 cytotoxicity of compounds pre-conditioned in the BioActivator (in words)” value (HEK293 cells [7]; compared to compounds pre-conditioned in cell free agarose beads) is reported as “produce cytotoxicity”, the CC50 (in vitro [2]; [13]) is reported as 84 ± 2 µM and the CC50 (in vitro [2]; [14]) is reported as over 250 µM. The CC50 (in vitro [3]) was over 250 µM and the CC50 (in vitro [4]; [15]) was 241 ± 9.8 µM.

With `O=C(O)Cc1ccccc1Nc1c(Cl)cccc1Cl` [Diclofenac] the “Effect of cryopreservation on hepatocyte clearance of probe (in words)” value [5] was “minimal impact”, the “Metabolite Generation (marker metabolite of the probe)” value ([5]; human, 30 min) was 0.98 pmol/min/10^6 hepatocytes and the “Metabolite generation in slotted pipette tip compared with control hepatocyte suspension cultures (in words)” value [6] was “compare favorably”.

For `Nc1ccc2ccccc2c1` [2-Napthylamine, 2-Napthylamine], the “HEK293 cytotoxicity co-cultured with BioActivator (in words)” value (HEK293 cells [1]) was “No HEK293 cytotoxicity”, the “HEK293 cytotoxicity co-cultured with cell free agarose bead (in words)” value (HEK293 cells [1]) was “No HEK293 cytotoxicity” and the CC50 [8] was over 250 µM.

Source: US11376580B2, “Methods and systems comprising modified pipettes for transferring and preserving biomaterial” (UNIVERSITY OF PITTSBURGH—OF THE COMMONWEALTH SYSTEM OF …, priority 2017, dated 2022)
